Laboratory results published in patent publication US20260097047A1, “Small molecule inhibitors of the ribosome biogenesis factor NVL2” (Board of Regents, The University of Texas System, priority 2023, published 2026).

Test system: HCT116 cells
Assay: Cell viability assay (CellTiter-Glo, 72 hours) in HCT116 human colorectal cancer cells
Type: cell-based
Settings: Table 7; cell viability assay, CellTiter-Glo, 72 hours; scaffold drawing 42 with R^2, R^3, X/Y, Z; read-out: Activity
Summary of the method: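 Ten-point IC50 came from an asymmetric five-parameter fit of luminescence corrected to vehicle wells. ATP content was measured by CellTiter-Glo 72 h after dosing at 37 °C. Cells were seeded at 2,000/well the day before, with 0.5% DMSO in all wells.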

C#CCOCCN1C(=O)c2ccccc2Sc2cc(NC(=O)c3ccoc3)ccc21 [—(CH2)2OCH2CCH; furan-3-yl; CH/CH; S] showed an IC50 of less than 0.5 µM.

In the case of O=C(Nc1ccc2c(c1)Sc1ccccc1C(=O)N2CCO)c1ccoc1 [—(CH2)2OH; furan-3-yl; CH/CH; S], the IC50 is reported as 1 to 5 µM.

In the case of COCCN1C(=O)c2ccccc2Sc2cc(NC(=O)c3cc(C)oc3C)ccc21 [—(CH2)2OMe; 2,5-Me2-furan-3-yl; CH/CH; S], the IC50 is reported as 1 to 5 µM.

C#Cc1cc(C(=O)Nc2ccc3c(c2)Sc2ccccc2C(=O)N3CCOC)ccn1 [—(CH2)2OMe; 2-(HCC)pyrid-4-yl; CH/CH; S] showed an IC50 of 1 to 5 µM.

Work on COCCN1C(=O)c2ccccc2Sc2cc(NC(=O)c3ccc(OC)cc3F)ccc21 [—(CH2)2OMe; 2-F,4-MeOPh; CH/CH; S] yielded an IC50 of 0.5 to 1 µM.

COCCN1C(=O)c2ccccc2Sc2cc(NC(=O)c3ccc(OC)cc3C)ccc21 [—(CH2)2OMe; 2-Me,4-MeOPh; CH/CH; S] showed an IC50 of 1 to 5 µM.

In the case of COCCN1C(=O)c2ccccc2Sc2cc(NC(=O)c3ccoc3C)ccc21 [—(CH2)2OMe; 2-Me-furan-3-yl; CH/CH; S], the IC50 is reported as 0.5 to 1 µM.

Compound COCCN1C(=O)c2ccccc2Sc2cc(NC(=O)c3ccccc3OC)ccc21 [—(CH2)2OMe; 2-MeOPh; CH/CH; S] has an IC50 of less than 0.5 µM.

With COCCN1C(=O)c2ccccc2Sc2cc(NC(=O)c3ccc4ccccc4c3)ccc21 [—(CH2)2OMe; 2-naphtyl; CH/CH; S] the IC50 was 1 to 5 µM.

For COCCN1C(=O)c2ccccc2Sc2cc(NC(=O)c3ccc(Cl)c(Cl)c3)ccc21 [—(CH2)2OMe; 3,4-Cl2Ph; CH/CH; S], the IC50 was 1 to 5 µM.

With COCCN1C(=O)c2ccccc2Sc2cc(NC(=O)c3ccc(F)c(F)c3)ccc21 [—(CH2)2OMe; 3,4-F2Ph; CH/CH; S] the IC50 was 1 to 5 µM.

For COCCN1C(=O)c2ccccc2Sc2cc(NC(=O)c3cc(F)c(OC)c(F)c3)ccc21 [—(CH2)2OMe; 3,5-F2,4-MeOPh; CH/CH; S], the IC50 was 0.5 to 1 µM.

COCCN1C(=O)c2ccccc2Sc2cc(NC(=O)c3cccc(CCC#N)c3)ccc21 [—(CH2)2OMe; 3-(2′-CNEt)Ph; CH/CH; S] showed an IC50 of less than 0.5 µM.

COCCN1C(=O)c2ccccc2Sc2cc(NC(=O)c3cccc(C(F)(F)F)c3)ccc21 [—(CH2)2OMe; 3-CF3Ph; CH/CH; S] showed an IC50 of 1 to 5 µM.

For COCCN1C(=O)c2ccccc2Sc2cc(NC(=O)c3cccc(C#N)c3)ccc21 [—(CH2)2OMe; 3-CNPh; CH/CH; S], the IC50 was 1 to 5 µM.

COCCN1C(=O)c2ccccc2Sc2cc(NC(=O)c3ccc(F)c(Cl)c3)ccc21 [—(CH2)2OMe; 3-Cl,4-FPh; CH/CH; S] gave an IC50 of 1 to 5 µM.

COCCN1C(=O)c2ccccc2Sc2cc(NC(=O)c3ccc(NC=O)c(Cl)c3)ccc21 [—(CH2)2OMe; 3-Cl,4-HC(O)NHPh; CH/CH; S] gave an IC50 of 1 to 5 µM.

With COCCN1C(=O)c2ccccc2Sc2cc(NC(=O)c3cccc(Cl)c3)ccc21 [—(CH2)2OMe; 3-ClPh; CH/CH; S] the IC50 was 1 to 5 µM.

COCCN1C(=O)c2ccccc2Sc2cc(NC(=O)c3ccc(OC(F)F)c(F)c3)ccc21 [—(CH2)2OMe; 3-F,4-F2HCOPh; CH/CH; S] showed an IC50 of 1 to 5 µM.

Work on COCCN1C(=O)c2ccccc2Sc2cc(NC(=O)c3ccc(OC(F)(F)F)c(F)c3)ccc21 [—(CH2)2OMe; 3-F,4-F3COPh; CH/CH; S] yielded an IC50 of 1 to 5 µM.

Work on COCCN1C(=O)c2ccccc2Sc2cc(NC(=O)c3ccc(OC)c(F)c3)ccc21 [—(CH2)2OMe; 3-F,4MeOPh; CH/CH; S] yielded an IC50 of 0.5 to 1 µM.

Work on COCCN1C(=O)c2ccccc2Sc2cc(NC(=O)c3cccc(OCF)c3)ccc21 [—(CH2)2OMe; 3-FH2COPh; CH/CH; S] yielded an IC50 of less than 0.5 µM.

For COCCN1C(=O)c2ccccc2Sc2cc(NC(=O)c3cccc(F)c3)ccc21 [—(CH2)2OMe; 3-FPh; CH/CH; S], the IC50 was 1 to 5 µM.

With COCCN1C(=O)c2ccccc2Sc2cc(NC(=O)c3cccc(C(N)=O)c3)ccc21 [—(CH2)2OMe; 3-H2NC(O)Ph; CH/CH; S] the IC50 was 1 to 5 µM.

With COCCN1C(=O)c2ccccc2Sc2cc(NC(=O)c3cccc(C(=O)N(C)C)c3)ccc21 [—(CH2)2OMe; 3-Me2NC(O)Ph; CH/CH; S] the IC50 was 0.5 to 1 µM.

CNC(=O)c1cccc(C(=O)Nc2ccc3c(c2)Sc2ccccc2C(=O)N3CCOC)c1 [—(CH2)2OMe; 3-MeNHC(O)Ph; CH/CH; S] gave an IC50 of 1 to 5 µM.

COCCN1C(=O)c2ccccc2Sc2cc(NC(=O)c3ccc(Cl)c(OC)c3)ccc21 [—(CH2)2OMe; 3-MeO,4-ClPh; CH/CH; S] gave an IC50 of 0.5 to 1 µM.

For COCCN1C(=O)c2ccccc2Sc2cc(NC(=O)c3ccc(F)c(OC)c3)ccc21 [—(CH2)2OMe; 3-MeO,4-FPh; CH/CH; S], the IC50 was 0.5 to 1 µM.

For COCCN1C(=O)c2ccccc2Sc2cc(NC(=O)c3cccc(OC)c3)ccc21 [—(CH2)2OMe; 3-MeOPh; CH/CH; S], the IC50 was less than 0.5 µM.

For COCCN1C(=O)c2ccccc2Sc2cc(NC(=O)C3CC(=O)C3)ccc21 [—(CH2)2OMe; 3-oxo-cBu; CH/CH; S], the IC50 was 1 to 5 µM.

COCCN1C(=O)c2ccccc2Sc2cc(NC(=O)c3ccc(CN)cc3)ccc21 [—(CH2)2OMe; 4-(NH2CH2)Ph; CH/CH; S] was tested, and the IC50 was 1 to 5 µM.

Work on COCCN1C(=O)c2ccccc2Sc2cc(NC(=O)c3ccc(OC(F)(F)F)cc3)ccc21 [—(CH2)2OMe; 4-CF3OPh; CH/CH; S] yielded an IC50 of 1 to 5 µM.

COCCN1C(=O)c2ccccc2Sc2cc(NC(=O)c3ccc(C(F)(F)F)cc3)ccc21 [—(CH2)2OMe; 4-CF3Ph; CH/CH; S] showed an IC50 of 1 to 5 µM.

Compound COCCN1C(=O)c2ccccc2Sc2cc(NC(=O)c3ccc(OC(F)F)cc3)ccc21 [—(CH2)2OMe; 4-F2HCOPh; CH/CH; S] has an IC50 of 0.5 to 1 µM.

Work on COCCN1C(=O)c2ccccc2Sc2cc(NC(=O)c3ccc(OCF)cc3)ccc21 [—(CH2)2OMe; 4-FH2COPh; CH/CH; S] yielded an IC50 of less than 0.5 µM.

Compound COCCN1C(=O)c2ccccc2Sc2cc(NC(=O)c3ccc(F)cc3)ccc21 [—(CH2)2OMe; 4-FPh; CH/CH; S] has an IC50 of 1 to 5 µM.

C#Cc1ccc(C(=O)Nc2ccc3c(c2)Sc2ccccc2C(=O)N3CCOC)cc1 [—(CH2)2OMe; 4-HCCPh; CH/CH; S] was tested, and the IC50 was 0.5 to 1 µM.

COCCN1C(=O)c2ccccc2Sc2cc(NC(=O)c3ccc(OC)cc3)ccc21 [—(CH2)2OMe; 4-MeOPh; CH/CH; S] was tested, and the IC50 was less than 0.5 µM.

COCCN1C(=O)c2ccccc2Sc2cc(NC(=O)c3ccc(C)cc3)ccc21 [—(CH2)2OMe; 4-MePh; CH/CH; S] was tested, and the IC50 was 1 to 5 µM.

With COCCN1C(=O)c2ccccc2Sc2cc(NC(=O)c3ccc(N=[N+]=[N-])cc3)ccc21 [—(CH2)2OMe; 4-N3Ph; CH/CH; S] the IC50 was 1 to 5 µM.

Work on CCCOc1ccc(C(=O)Nc2ccc3c(c2)Sc2ccccc2C(=O)N3CCOC)cc1 [—(CH2)2OMe; 4-PrOPh; CH/CH; S] yielded an IC50 of 1 to 5 µM.

C#Cc1ccc(C(=O)Nc2ccc3c(c2)Sc2ccccc2C(=O)N3CCOC)cn1 [—(CH2)2OMe; 6-(HCC)pyrid-3-yl; CH/CH; S] showed an IC50 of 1 to 5 µM.

COCCN1C(=O)c2ccccc2Sc2cc(NC(C)=O)ccc21 [—(CH2)2OMe; Me; CH/CH; S] gave an IC50 of 1 to 5 µM.

With COCCN1C(=O)c2ccccc2Sc2cc(NC(=O)C3CCC3)ccc21 [—(CH2)2OMe; cBu; CH/CH; S] the IC50 was 0.5 to 1 µM.

In the case of COCCN1C(=O)c2ccccc2Sc2cc(NC(=O)C3CCCCCC3)ccc21 [—(CH2)2OMe; cHeptyl; CH/CH; S], the IC50 is reported as 1 to 5 µM.

For COCCN1C(=O)c2ccccc2Sc2cc(NC(=O)C3CCCCC3)ccc21 [—(CH2)2OMe; cHex; CH/CH; S], the IC50 was 1 to 5 µM.

With COCCN1C(=O)c2ccccc2Sc2cc(NC(=O)C3CC3)ccc21 [—(CH2)2OMe; cPr; CH/CH; S] the IC50 was 1 to 5 µM.

Compound COCCN1C(=O)c2ccc(F)cc2Sc2cc(NC(=O)c3ccoc3)ccc21 [—(CH2)2OMe; furan-3-yl; CF/CH; S] has an IC50 of less than 0.5 µM.
